What all share (test): TR-FRET enzymatic activity assay against PI3K isoforms
Assay type in all cases: biochemical

Test [1] deals with PI3Kβ (Homo sapiens (Human), UniProt P42338). The settings on record: for IC50: PI3Kβ, TR-FRET, 2×Km ATP, 30 minutes at 25° C.; for PI3Kγ/PI3Kβ ratio: ratio of IC50 values, selectivity for PI3Kβ over PI3Kγ. The text has this:
(§1) The compounds of formula (I) were characterized for their enzymatic activity against the PI3K isoforms. […] TR-FRET monitored the formation of 3,4,5-inositol triphosphate molecule that competed with fluorescently labeled PIP3 for binding to the GRP-1 pleckstrin homology domain protein.
For orientation: In TR-FRET formats the signal depends on donor and acceptor labels being close together.

Test [2] addresses PI3Kγ (Homo sapiens (Human), UniProt P48736). The settings on record: 2×Km ATP, 30 minutes at 25° C.
Text: as §1

For test [3], the target named is PI3Kδ (Homo sapiens (Human), UniProt O00329). The settings on record: 2×Km ATP, 30 minutes at 25° C.
Text: as §1

Bounds are passed on as bounds.

In patent publication US11021467B2, “Phosphatidylinositol 3-kinase inhibitors” (Gilead Sciences, Inc., priority 2014, dated 2021) one finds IC50 and PI3Kγ/PI3Kβ ratio data, which are given here for 23 molecules.

PI3Kβ, sequence (P42338 whole entry, the tested form may be a part, canonical isoform): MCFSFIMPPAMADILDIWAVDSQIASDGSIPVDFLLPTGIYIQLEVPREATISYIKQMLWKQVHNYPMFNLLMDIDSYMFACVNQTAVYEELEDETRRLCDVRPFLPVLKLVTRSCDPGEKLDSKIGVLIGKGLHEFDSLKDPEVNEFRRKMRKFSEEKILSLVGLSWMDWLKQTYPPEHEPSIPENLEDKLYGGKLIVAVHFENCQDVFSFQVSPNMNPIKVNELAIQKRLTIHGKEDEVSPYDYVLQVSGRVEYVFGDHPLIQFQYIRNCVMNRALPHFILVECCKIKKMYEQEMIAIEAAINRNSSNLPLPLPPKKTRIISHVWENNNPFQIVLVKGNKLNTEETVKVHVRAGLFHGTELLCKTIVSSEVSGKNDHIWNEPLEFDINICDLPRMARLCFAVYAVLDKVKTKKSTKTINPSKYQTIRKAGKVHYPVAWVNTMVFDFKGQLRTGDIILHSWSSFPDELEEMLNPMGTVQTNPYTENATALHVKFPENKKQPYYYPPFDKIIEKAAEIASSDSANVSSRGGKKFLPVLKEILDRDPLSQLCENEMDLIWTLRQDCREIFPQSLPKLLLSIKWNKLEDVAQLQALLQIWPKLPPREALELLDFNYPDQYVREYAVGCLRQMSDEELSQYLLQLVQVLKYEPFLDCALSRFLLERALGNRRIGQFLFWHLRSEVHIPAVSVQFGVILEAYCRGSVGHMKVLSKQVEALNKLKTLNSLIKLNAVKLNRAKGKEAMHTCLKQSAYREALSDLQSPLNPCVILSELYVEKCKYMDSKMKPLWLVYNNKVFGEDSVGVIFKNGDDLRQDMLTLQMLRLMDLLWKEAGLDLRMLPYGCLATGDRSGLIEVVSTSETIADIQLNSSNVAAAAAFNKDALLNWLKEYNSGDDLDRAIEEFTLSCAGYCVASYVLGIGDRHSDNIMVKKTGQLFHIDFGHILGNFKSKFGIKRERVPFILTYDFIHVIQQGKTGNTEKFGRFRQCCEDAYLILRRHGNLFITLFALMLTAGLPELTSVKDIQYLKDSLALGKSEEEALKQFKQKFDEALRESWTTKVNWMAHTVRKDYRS
PI3Kβ, sequence (P27986 whole entry partner, the tested form may be a part, canonical isoform): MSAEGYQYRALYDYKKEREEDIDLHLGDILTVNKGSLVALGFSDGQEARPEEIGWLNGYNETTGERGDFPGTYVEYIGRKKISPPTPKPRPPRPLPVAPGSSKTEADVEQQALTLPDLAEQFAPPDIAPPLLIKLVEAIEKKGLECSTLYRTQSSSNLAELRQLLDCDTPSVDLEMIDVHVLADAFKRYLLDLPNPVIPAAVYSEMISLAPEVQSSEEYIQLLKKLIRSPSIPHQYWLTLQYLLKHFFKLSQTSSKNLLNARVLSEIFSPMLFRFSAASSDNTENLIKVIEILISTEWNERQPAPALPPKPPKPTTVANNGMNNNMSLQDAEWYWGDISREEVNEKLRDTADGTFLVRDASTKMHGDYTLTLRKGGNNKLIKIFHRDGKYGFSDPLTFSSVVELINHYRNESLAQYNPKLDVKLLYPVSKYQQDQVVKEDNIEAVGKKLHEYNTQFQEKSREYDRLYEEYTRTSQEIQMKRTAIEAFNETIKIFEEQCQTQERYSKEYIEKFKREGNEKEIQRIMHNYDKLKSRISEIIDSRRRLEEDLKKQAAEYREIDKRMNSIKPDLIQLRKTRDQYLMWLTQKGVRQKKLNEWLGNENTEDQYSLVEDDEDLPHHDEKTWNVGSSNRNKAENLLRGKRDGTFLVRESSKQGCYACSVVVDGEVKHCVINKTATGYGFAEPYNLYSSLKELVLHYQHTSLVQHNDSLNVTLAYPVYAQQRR
PI3Kγ, sequence (P48736 whole entry): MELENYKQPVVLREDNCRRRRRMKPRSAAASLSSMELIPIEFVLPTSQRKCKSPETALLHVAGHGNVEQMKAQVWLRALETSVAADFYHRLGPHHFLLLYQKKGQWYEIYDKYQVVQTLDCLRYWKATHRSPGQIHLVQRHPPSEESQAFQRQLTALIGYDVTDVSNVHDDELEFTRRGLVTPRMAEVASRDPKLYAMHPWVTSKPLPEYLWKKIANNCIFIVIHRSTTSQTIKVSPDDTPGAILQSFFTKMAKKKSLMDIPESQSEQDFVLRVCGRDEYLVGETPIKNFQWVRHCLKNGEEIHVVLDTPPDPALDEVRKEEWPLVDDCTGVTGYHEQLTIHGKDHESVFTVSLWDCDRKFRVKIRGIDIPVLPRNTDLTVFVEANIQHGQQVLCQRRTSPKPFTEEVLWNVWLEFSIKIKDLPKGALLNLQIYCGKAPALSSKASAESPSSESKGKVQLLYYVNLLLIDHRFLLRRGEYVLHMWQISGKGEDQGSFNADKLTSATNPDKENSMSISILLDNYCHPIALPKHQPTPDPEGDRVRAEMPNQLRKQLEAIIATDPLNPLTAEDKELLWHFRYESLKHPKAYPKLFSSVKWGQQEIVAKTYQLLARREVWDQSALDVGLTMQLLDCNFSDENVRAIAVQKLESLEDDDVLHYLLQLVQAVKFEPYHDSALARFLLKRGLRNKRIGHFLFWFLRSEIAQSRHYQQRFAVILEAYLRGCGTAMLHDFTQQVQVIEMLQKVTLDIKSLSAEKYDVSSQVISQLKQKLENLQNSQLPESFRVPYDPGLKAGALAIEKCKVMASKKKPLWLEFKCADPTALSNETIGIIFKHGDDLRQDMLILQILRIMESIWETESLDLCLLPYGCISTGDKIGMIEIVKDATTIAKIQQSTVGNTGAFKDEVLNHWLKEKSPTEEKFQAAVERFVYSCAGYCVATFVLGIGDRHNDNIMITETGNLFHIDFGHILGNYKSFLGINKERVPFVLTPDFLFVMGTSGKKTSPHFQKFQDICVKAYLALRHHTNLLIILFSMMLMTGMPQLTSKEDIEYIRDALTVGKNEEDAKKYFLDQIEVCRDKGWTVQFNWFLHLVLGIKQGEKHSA
PI3Kδ, sequence (O00329 whole entry): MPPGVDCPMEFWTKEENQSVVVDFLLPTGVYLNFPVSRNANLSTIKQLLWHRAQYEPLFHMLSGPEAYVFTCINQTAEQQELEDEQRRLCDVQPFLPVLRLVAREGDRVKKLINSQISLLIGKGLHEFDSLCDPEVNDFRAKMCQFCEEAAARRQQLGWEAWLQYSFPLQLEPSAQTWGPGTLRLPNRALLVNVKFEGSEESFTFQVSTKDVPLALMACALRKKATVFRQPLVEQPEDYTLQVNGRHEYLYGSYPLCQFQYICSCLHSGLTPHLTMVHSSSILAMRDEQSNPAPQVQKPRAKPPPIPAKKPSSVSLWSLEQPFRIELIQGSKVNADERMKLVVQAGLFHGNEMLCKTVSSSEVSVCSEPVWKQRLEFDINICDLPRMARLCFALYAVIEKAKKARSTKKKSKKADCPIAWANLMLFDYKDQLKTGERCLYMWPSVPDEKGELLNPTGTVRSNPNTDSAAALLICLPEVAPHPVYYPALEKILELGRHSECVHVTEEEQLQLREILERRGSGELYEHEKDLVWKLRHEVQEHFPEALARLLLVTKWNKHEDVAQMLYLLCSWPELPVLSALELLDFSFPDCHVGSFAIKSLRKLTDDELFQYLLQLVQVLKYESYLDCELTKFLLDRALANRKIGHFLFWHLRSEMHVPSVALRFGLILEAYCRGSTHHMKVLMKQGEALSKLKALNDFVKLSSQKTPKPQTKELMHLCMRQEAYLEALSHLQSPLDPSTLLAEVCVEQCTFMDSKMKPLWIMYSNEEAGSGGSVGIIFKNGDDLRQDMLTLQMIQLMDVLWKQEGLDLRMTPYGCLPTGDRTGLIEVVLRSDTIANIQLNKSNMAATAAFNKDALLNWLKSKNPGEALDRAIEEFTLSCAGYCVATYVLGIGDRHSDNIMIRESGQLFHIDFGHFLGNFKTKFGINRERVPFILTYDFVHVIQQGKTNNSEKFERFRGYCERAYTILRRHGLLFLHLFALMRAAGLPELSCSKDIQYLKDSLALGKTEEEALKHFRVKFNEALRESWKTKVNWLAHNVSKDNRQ
PI3Kδ, sequence (P27986 whole entry partner): as the sequence (P27986 whole entry partner, the tested form may be a part, canonical isoform) above

For orientation: IC50 means the point on the concentration scale where inhibition reaches its midpoint. Read a low IC50 as greater potency in that assay. `C[C@H](Nc1nc(N)nc(N)c1C#N)c1nc2cccc(Cl)c2c(=O)n1CC1CCCNC1` (stereo in doubt) [Compound 123, 2,4-diamino-6-(((S)-1-(5-chloro-4-oxo-3-((R)-piperidin-3-ylmethyl)-3,4-dihydroquinazolin-2-yl)ethyl)amino)pyrimidine-5-carbonitrile]: the IC50 is 79 nM in test [1], 1300 nM in test [2] and 3 nM in test [3].
For `C[C@H](Nc1nc(N)nc(N)c1C#N)c1nc2cccc(Cl)c2c(=O)n1CC1CCCNC1` (stereo in doubt) [Compound 124, 2,4-diamino-6-(((S)-1-(5-chloro-4-oxo-3-((S)-piperidin-3-ylmethyl)-3,4-dihydroquinazolin-2-yl)ethyl)amino)pyrimidine-5-carbonitrile] the same measures were 88 nM, 3200 nM and 2 nM.
For `N#Cc1c(N)nc(N)nc1N[C@@H](c1ccccc1)c1nc2cccc(Cl)c2c(=O)n1CCCN` [Compound 1, (S)-2,4-diamino-6-(((3-(3-aminopropyl)-5-chloro-4-oxo-3,4-dihydroquinazolin-2-yl)(phenyl)methyl)amino)pyrimidine-5-carbonitrile] the same measures were 27 nM, at least 10000 nM and 9 nM.
Taken in the same sequence, the figures for `C[C@H](Nc1ncnc2scnc12)c1nc2cccc(Cl)c2c(=O)n1CCC(C)(C)N` [Compound 2, (S)-3-(3-amino-3-methylbutyl)-5-chloro-2-(1-(thiazolo[5,4-d]pyrimidin-7-ylamino)ethyl)quinazolin-4(3H)-one] were 1500 nM, at least 10000 nM and 27 nM.
Regarding `C[C@H](Nc1ncnc(N)c1C#N)c1nc2cccc(Cl)c2c(=O)n1CCC(C)(C)N` [Compound 3, (S)-4-amino-6-((1-(3-(3-amino-3-methylbutyl)-5-chloro-4-oxo-3,4-dihydroquinazolin-2-yl)ethyl)amino)pyrimidine-5-carbonitrile], the IC50 is 1300 nM in test [1], at least 10000 nM in test [2] and 15 nM in test [3].
Taken in the same sequence, the figures for `C[C@H](Nc1nc(N)nc(N)c1C#N)c1nc2cccc(Cl)c2c(=O)n1CCCNc1ncccn1` [Compound 4, (S)-2,4-diamino-6-((1-(5-chloro-4-oxo-3-(3-(pyrimidin-2-ylamino)propyl)-3,4-dihydroquinazolin-2-yl)ethyl)amino)pyrimidine-5-carbonitrile] were 420 nM, 660 nM and 5 nM.
For `C[C@H](Nc1nc(N)nc(N)c1C#N)c1nc2cccc(Cl)c2c(=O)n1CCCNc1ccccn1` [Compound 5, (S)-2,4-diamino-6-((1-(5-chloro-4-oxo-3-(3-(pyridin-2-ylamino)propyl)-3,4-dihydroquinazolin-2-yl)ethyl)amino)pyrimidine-5-carbonitrile] the same measures were 930 nM, 2200 nM and 5 nM.
For `C[C@H](Nc1ncnc(N)c1C#N)c1nc2cccc(Cl)c2c(=O)n1CCCNCc1ccccc1` [Compound 6, (S)-4-amino-6-((1-(3-(3-(benzylamino)propyl)-5-chloro-4-oxo-3,4-dihydroquinazolin-2-yl)ethyl)amino)pyrimidine-5-carbonitrile] the same measures were 250 nM, at least 10000 nM and 9 nM.
For `C[C@H](Nc1nc(N)nc(N)c1Cl)c1nc2cccc(Cl)c2c(=O)n1CCCN` [Compound 7, (S)-3-(3-aminopropyl)-5-chloro-2-(1-((2,6-diamino-5-chloropyrimidin-4-yl)amino)ethyl)quinazolin-4(3H)-one], the IC50 is 140 nM in test [1], at least 10000 nM in test [2] and 35 nM in test [3].
Taken in the same sequence, the figures for `C[C@H](Nc1nc(N)nc(N)c1C#N)c1nc2cccc(Cl)c2c(=O)n1CCCNCc1ccccc1` [Compound 8, (S)-2,4-diamino-6-((1-(3-(3-(benzylamino)propyl)-5-chloro-4-oxo-3,4-dihydroquinazolin-2-yl)ethyl)amino)pyrimidine-5-carbonitrile] were 68 nM, 1700 nM and 5 nM.
For `C[C@H](Nc1nc(N)nc(N)c1C#N)c1nc2cccc(Cl)c2c(=O)n1N(CCN)Cc1ccccc1` [Compound 9, (S)-2,4-diamino-6-((1-(3-((2-aminoethyl)(benzyl)amino)-5-chloro-4-oxo-3,4-dihydroquinazolin-2-yl)ethyl)amino)pyrimidine-5-carbonitrile] the same measures were 170 nM, at least 10000 nM and 77 nM.
For `C[C@H](Nc1nc(N)nc(N)c1C#N)c1nc2cccc(Cl)c2c(=O)n1N(CCN)Cc1ccccc1` [Compound 10, (S)-2,4-diamino-6-((1-(3-((2-aminoethyl)(benzyl)amino)-5-chloro-4-oxo-3,4-dihydroquinazolin-2-yl)ethyl)amino)pyrimidine-5-carbonitrile] the same measures were 840 nM, at least 10000 nM and 480 nM.
On to `C[C@H](Nc1ncnn2ccnc12)c1nc2cccc(Cl)c2c(=O)n1N(C)CCN` [Compound 11, (S)-3-((2-aminoethyl)(methyl)amino)-5-chloro-2-(1-(imidazo[2,1-f][1,2,4]triazin-4-ylamino)ethyl)quinazolin-4(3H)-one], for which the values for the IC50 in test [1], in test [2] and in test [3] were 93 nM, at least 10000 nM and 37 nM, respectively.
As to `C[C@H](Nc1ncnc(N)c1C#N)c1nc2cccc(Cl)c2c(=O)n1N(CCN)Cc1ccccc1` [Compound 12, (S)-4-amino-6-((1-(3-((2-aminoethyl)(benzyl)amino)-5-chloro-4-oxo-3,4-dihydroquinazolin-2-yl)ethyl)amino)pyrimidine-5-carbonitrile], the IC50 in test [1] was 300 nM; in test [2] it was at least 10000 nM; in test [3] it was 52 nM.
Taken in the same sequence, the figures for `C[C@H](Nc1ncnc(N)c1C#N)c1nc2cccc(Cl)c2c(=O)n1N(CCN)Cc1ccccc1` [Compound 13, (S)-4-amino-6-((1-(3-((2-aminoethyl)(benzyl)amino)-5-chloro-4-oxo-3,4-dihydroquinazolin-2-yl)ethyl)amino)pyrimidine-5-carbonitrile] were 6800 nM, at least 10000 nM and 3300 nM.
For `C[C@H](Nc1nc(N)nc(N)c1C#N)c1nc2cccc(Cl)c2c(=O)n1N(C)CCN` [Compound 14, (S)-2,4-diamino-6-((1-(3-((2-aminoethyl)(methyl)amino)-5-chloro-4-oxo-3,4-dihydroquinazolin-2-yl)ethyl)amino)pyrimidine-5-carbonitrile] the same measures were 9 nM, 1900 nM and 2 nM.
Taken in the same sequence, the figures for `C[C@H](Nc1nc(N)nc(N)c1C#N)c1nc2cccc(Cl)c2c(=O)n1N(C)CCN` [Compound 15, (S)-2,4-diamino-6-((1-(3-((2-aminoethyl)(methyl)amino)-5-chloro-4-oxo-3,4-dihydroquinazolin-2-yl)ethyl)amino)pyrimidine-5-carbonitrile] were 2 nM, 1700 nM and 3 nM.
`C[C@H](Nc1ncnc(N)c1C#N)c1nc2cccc(Cl)c2c(=O)n1N(C)CCN` [Compound 16, (S)-4-amino-6-((1-(3-((2-aminoethyl)(methyl)amino)-5-chloro-4-oxo-3,4-dihydroquinazolin-2-yl)ethyl)amino)pyrimidine-5-carbonitrile]: the figures for the IC50 in test [1], in test [2] and in test [3] were 42 nM, at least 10000 nM and 7 nM, respectively.
Taken in the same sequence, the figures for `C[C@H](Nc1ncnc(N)c1C#N)c1nc2cccc(Cl)c2c(=O)n1N(C)CCN` [Compound 17, (S)-4-amino-6-((1-(3-((2-aminoethyl)(methyl)amino)-5-chloro-4-oxo-3,4-dihydroquinazolin-2-yl)ethyl)amino)pyrimidine-5-carbonitrile] were 69 nM, at least 10000 nM and 11 nM.
In the case of `C[C@H](NC(=O)c1nccnc1N)c1nc2cccc(Cl)c2c(=O)n1CCCN` [Compound 18, (S)-3-amino-N-(1-(3-(3-aminopropyl)-5-chloro-4-oxo-3,4-dihydroquinazolin-2-yl)ethyl)pyrazine-2-carboxamide], the IC50 in test [1] was 360 nM; in test [2], at least 10000 nM; in test [3], 370 nM.
Taken in the same sequence, the figures for `C[C@H](Nc1ncnc2[nH]cnc12)c1nc2cccc(Cl)c2c(=O)n1CCCN1CCOCC1` [Compound 19, (S)-2-(1-((9H-purin-6-yl)amino)ethyl)-5-chloro-3-(3-morpholinopropyl)quinazolin-4(3H)-one] were 1300 nM, at least 10000 nM and 14 nM.
Regarding `Cc1ncnc(N[C@@H](C)c2nc3cccc(Cl)c3c(=O)n2CCCN)c1C#N` [Compound 23, (S)-4-((1-(3-(3-aminopropyl)-5-chloro-4-oxo-3,4-dihydroquinazolin-2-yl)ethyl)amino)-6-methylpyrimidine-5-carbonitrile], the IC50 in test [1] was 90 nM; in test [2], at least 10000 nM; in test [3], 25 nM.
For `C[C@H](Nc1nc(N)nc(N)c1C#N)c1nc2cccc(Cl)c2c(=O)n1-c1ccccc1` [Compound X, (S)-2,4-diamino-6-((1-(5-chloro-4-oxo-3-phenyl-3,4-dihydroquinazolin-2-yl)ethyl)amino)pyrimidine-5-carbonitrile, reference compound], the PI3Kγ/PI3Kβ ratio in test [1] is recorded as 0.6; in test [1] (listed as (S)-2,4-diamino-6-(1-(5-chloro-4-oxo-3-phenyl-3,4-dihydroquinazolin-2-yl)ethyl)) it was “less than 1”.
